Results on 18 compounds are retold here after patent US11180474B2 (BRISTOL-MYERS SQUIBB COMPANY, priority 2016, dated 2021).

Counter-ions that a name gives are not always drawn.

The target of assay [1] is T1, human TLR7 (Homo sapiens, UniProt Q9NYK1).
T1 construct: host or cells: HEK-Blue cells
T1 sequence (Q9NYK1 27-1049): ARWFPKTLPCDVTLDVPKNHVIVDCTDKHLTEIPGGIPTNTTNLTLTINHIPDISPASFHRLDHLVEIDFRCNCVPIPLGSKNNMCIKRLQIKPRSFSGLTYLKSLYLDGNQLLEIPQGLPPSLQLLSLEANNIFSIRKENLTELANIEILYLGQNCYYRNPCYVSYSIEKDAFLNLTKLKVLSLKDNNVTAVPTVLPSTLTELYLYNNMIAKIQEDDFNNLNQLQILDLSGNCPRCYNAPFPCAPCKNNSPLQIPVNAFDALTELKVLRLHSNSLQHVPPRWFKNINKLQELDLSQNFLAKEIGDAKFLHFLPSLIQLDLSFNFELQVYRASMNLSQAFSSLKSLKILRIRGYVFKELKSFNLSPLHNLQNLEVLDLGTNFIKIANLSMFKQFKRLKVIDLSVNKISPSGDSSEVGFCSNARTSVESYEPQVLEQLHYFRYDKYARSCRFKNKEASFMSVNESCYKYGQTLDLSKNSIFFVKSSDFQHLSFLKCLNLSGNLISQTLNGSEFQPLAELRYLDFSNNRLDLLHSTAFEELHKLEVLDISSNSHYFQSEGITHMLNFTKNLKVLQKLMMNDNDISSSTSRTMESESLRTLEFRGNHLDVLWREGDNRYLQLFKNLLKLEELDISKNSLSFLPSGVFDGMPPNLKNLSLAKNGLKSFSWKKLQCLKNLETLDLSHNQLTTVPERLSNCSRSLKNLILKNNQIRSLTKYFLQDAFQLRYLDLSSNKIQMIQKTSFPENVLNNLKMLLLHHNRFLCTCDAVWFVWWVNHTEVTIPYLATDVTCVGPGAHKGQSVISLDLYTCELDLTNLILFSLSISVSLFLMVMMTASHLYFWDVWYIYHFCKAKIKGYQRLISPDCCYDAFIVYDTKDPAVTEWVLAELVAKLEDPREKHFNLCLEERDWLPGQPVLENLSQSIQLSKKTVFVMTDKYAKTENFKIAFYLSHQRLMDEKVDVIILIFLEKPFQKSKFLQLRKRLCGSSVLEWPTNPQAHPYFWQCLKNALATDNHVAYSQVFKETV
Nature of the assay: TLR7 inhibition reporter assay (HEK-Blue cells, SEAP reporter, gardiquimod stimulation). Format: cell-based. The following applies: HEK-Blue cells overexpressing human TLR7, gardiquimod 7.5 μM. The essentials: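 SEAP readout via HEK-Blue Detection medium after 22 h at 37 °C, 5% CO2 defines inhibition, normalized between agonist-plus-DMSO wells and a reference inhibitor. Compound dose range 0.05 nM–50 μM; TLR7 cells at 15,000/well (gardiquimod), TLR8 at 20,000/well (R848).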

In assay [2] the target is T2, human TLR8 (Homo sapiens, UniProt Q9NR97).
T2 construct: host or cells: HEK-Blue cells
T2 sequence (Q9NR97 27-1041): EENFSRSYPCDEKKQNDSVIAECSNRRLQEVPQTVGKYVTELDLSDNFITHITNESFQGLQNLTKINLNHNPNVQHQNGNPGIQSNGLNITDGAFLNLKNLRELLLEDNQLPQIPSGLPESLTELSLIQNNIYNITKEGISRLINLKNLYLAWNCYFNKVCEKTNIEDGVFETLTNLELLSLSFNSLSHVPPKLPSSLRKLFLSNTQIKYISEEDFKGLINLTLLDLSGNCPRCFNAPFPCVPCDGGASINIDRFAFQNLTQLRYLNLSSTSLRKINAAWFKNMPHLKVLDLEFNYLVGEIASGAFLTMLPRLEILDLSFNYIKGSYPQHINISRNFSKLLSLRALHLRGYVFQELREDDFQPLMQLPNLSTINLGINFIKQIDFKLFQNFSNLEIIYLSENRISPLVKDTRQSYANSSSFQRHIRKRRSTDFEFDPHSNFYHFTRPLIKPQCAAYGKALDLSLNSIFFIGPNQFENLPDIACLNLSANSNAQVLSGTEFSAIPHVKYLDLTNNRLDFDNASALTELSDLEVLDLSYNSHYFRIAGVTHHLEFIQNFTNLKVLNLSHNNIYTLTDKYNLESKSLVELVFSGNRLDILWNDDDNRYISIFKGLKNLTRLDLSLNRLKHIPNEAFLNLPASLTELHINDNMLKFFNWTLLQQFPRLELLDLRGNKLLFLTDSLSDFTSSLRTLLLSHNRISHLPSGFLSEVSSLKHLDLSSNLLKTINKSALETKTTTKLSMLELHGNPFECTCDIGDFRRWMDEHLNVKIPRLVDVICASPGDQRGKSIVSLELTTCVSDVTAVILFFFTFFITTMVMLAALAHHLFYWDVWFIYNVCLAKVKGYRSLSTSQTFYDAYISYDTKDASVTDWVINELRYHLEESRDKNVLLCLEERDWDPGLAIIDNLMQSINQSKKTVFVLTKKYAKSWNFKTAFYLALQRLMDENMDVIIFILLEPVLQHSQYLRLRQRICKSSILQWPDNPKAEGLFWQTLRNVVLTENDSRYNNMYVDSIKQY
Nature of the assay: TLR8 inhibition reporter assay (HEK-Blue cells, SEAP reporter, R848 stimulation). Format: cell-based. The conditions noted are these: HEK-Blue cells overexpressing human TLR8, R848 15.9 μM. On the procedure:
TLR7/8/9 Inhibition Reporter Assays
Briefly, cells are seeded into Greiner 384 well plates (15000 cells per well for TLR7, 20,000 for TLR8 and 25,000 for TLR9) and then treated with test compounds in DMSO to yield a final dose response concentration range of 0.05 nM-50 μM. […] After a 22 hour incubation at 37° C., 5% CO2, SEAP levels are determined with the addition of HEK-Blue™ Detection reagent (Invivogen), a cell culture medium that allows for detection of SEAP, according to manufacturer's specifications. The percent inhibition is determined as the % reduction in the HEK-Blue signal present in wells treated with agonist plus DMSO alone compared to wells treated with a known inhibitor.

Take `CCc1c(-c2ccc(OC)c(OC)c2)[nH]c2ccc(C3CCN(C4CCN(CC)CC4)CC3)cc12` [Example 149, 2-(3,4-dimethoxyphenyl)-3-ethyl-5-(1′-ethyl-[1,4′-bipiperidin]-4-yl)-1H-indole]: the values for the half-inhibitory concentration (IC50) in assay [1] and in assay [2] were 345 nM and 31 nM, respectively.

For the compound `CCCc1c(-c2ccc(OC)c(OC)c2)[nH]c2ccc(C3CCN(C4CCN(CC(C)C)CC4)CC3)cc12` [Example 121, 2-(3,4-dimethoxyphenyl)-5-(1′-isobutyl-[1,4′-bipiperidin]-4-yl)-3-propyl-1H-indole-di-trifluoroacetic acid], the IC50 was 661 nM in assay [1] and 65 nM in assay [2].

For the compound `COc1ccc(-c2[nH]c3cc(C)c(C4CCNCC4)cc3c2C(C)C)cc1OC` [Example 205, 2-(3,4-dimethoxyphenyl)-3-isopropyl-6-methyl-5-(piperidin-4-yl)-1H-indole], the IC50 in assay [1] turned out to be 2370 nM; in assay [2], 6870 nM.

In the case of `COc1ccc(-c2[nH]c3ccc(C4CCN(C5CCN(C(C)C)CC5)CC4)cc3c2C(C)C)cc1OC` [Example 201, 2-(3,4-dimethoxyphenyl)-3-isopropyl-5-(1′-isopropyl-[1,4′-bipiperidin]-4-yl)-1H-indole], the values for the IC50 in assay [1] and in assay [2] were 119 nM and 17 nM, respectively.

In the case of `CCc1c(-c2ccc(OC)c(OC)c2)[nH]c2ccc(C3CCN(C4CCN(Cc5ccccc5)CC4)CC3)cc12` [Example 147, 5-(1′-benzyl-[1,4′-bipiperidin]-4-yl)-2-(3,4-dimethoxyphenyl)-3-ethyl-1H-indole], the figures for the IC50 in assay [1] and in assay [2] were 292 nM and 101 nM, respectively.

Regarding `CCc1c(-c2ccc(OC)c(OC)c2)[nH]c2ccc(C3CCN(C4CCN(Cc5sccc5C)CC4)CC3)cc12` [Example 139, 2-(3,4-dimethoxyphenyl)-3-ethyl-5-(1′-((3-methylthiophen-2-yl)methyl)-[1,4′-bipiperidin]-4-yl)-1H-indole], the IC50 turned out to be 579 nM in assay [1] and 206 nM in assay [2].

As to `CCc1c(-c2ccc(OC)c(OC)c2)[nH]c2ccc(C3CCN(C4CCN(CC(C)C)CC4)CC3)cc12` [Example 123, 2-(3,4-dimethoxyphenyl)-3-ethyl-5-(1′-isobutyl-[1,4′-bipiperidin]-4-yl)-1H-indole-di-trifluoroacetic acid], the IC50 in assay [1] was determined as 398 nM; in assay [2] it was 150 nM.

Consider `CCc1c(-c2ccc(OC)c(OC)c2)[nH]c2ccc(C3CCN(C4CCN(Cc5ccc(C)s5)CC4)CC3)cc12` [Example 140, 2-(3,4-dimethoxyphenyl)-3-ethyl-5-(1′-((5-methylthiophen-2-yl)methyl)-[1,4′-bipiperidin]-4-yl)-1H-indole], for which the IC50 in assay [1] is 1020 nM; in assay [2], 240 nM.

Turning to `CNCCN1CCC(c2ccc3c(c2)c(C)c(-c2ccc(OC)c(OC)c2)n3C)CC1` [Example 114, 2-(4-(2-(3,4-dimethoxyphenyl)-1,3-dimethyl-1H-indol-5-yl)piperidin-1-yl)-N-methylethan-1-amine], the values for the IC50 in assay [1] and in assay [2] were 5260 nM and 958 nM, respectively.

With `COc1ccc(-c2[nH]c3cc(C)c(C4CCN(C5CCN(C(C)C)CC5)CC4)cc3c2C(C)C)cc1OC` [Example 206, 2-(3,4-dimethoxyphenyl)-3-isopropyl-5-(1′-isopropyl-[1,4′-bipiperidin]-4-yl)-6-methyl-1H-indole di trifluoroacetic acid], the IC50 in assay [1] came to 3570 nM; in assay [2], 14500 nM.

Take `COc1ccc(-c2[nH]c3ccc(C4CCN(C5CCNCC5)CC4)cc3c2C(C)C)cc1OC` [Example 197, 5-([1,4′-bipiperidin]-4-yl)-2-(3,4-dimethoxyphenyl)-3-isopropyl-1H-indole dihydrochloride]: the IC50 in assay [1] is 113 nM; in assay [2], 25 nM.

Take `CCOC(=O)c1c(C)[nH]c(CN2CCC(N3CCC(c4ccc5[nH]c(-c6ccc(OC)c(OC)c6)c(CC)c5c4)CC3)CC2)c1C` [Example 127, ethyl 5-((4-(2-(3,4-dimethoxyphenyl)-3-ethyl-1H-indol-5-yl)-[1,4′-bipiperidin]-1′-yl)methyl)-2,4-dimethyl-1H-pyrrole-3-carboxylate]: the IC50 is 1620 nM in assay [1] and 345 nM in assay [2].

`COc1ccc(-c2[nH]c3ccc(C4CCN(C5CCN(CC(C)C)CC5)CC4)cc3c2Cl)cc1OC` [Example 120, 3-chloro-2-(3,4-dimethoxyphenyl)-5-(1′-isobutyl-[1,4′-bipiperidin]-4-yl)-1H-indole di-trifluoroacetic acid]: the IC50 in assay [1] turned out to be 2740 nM; in assay [2] it was 1260 nM.

`CCc1c(-c2ccc(OC)c(OC)c2)[nH]c2ccc(C3CCN(C4CCN(Cc5ccn(C)n5)CC4)CC3)cc12` [Example 133, 2-(3,4-dimethoxyphenyl)-3-ethyl-5-(1′-((1-methyl-1H-pyrazol-3-yl)methyl)-[1,4′-bipiperidin]-4-yl)-1H-indole]: the values for the IC50 in assay [1] and in assay [2] were 208 nM and 160 nM, respectively.

For `CCc1c(-c2ccc(OC)c(OC)c2)[nH]c2ccc(C3CCN(C4CCN(Cc5c[nH]cn5)CC4)CC3)cc12` [Example 125, 5-(1′-((1H-imidazol-4-yl)methyl)-[1,4′-bipiperidin]-4-yl)-2-(3,4-dimethoxyphenyl)-3-ethyl-1H-indole], the IC50 in assay [1] was determined as 182 nM; in assay [2], 150 nM.

On to `CCc1c(-c2ccc(OC)c(OC)c2)[nH]c2ccc(C3CCN(C(=O)CN4CCCC(C(=O)N(CC)CC)C4)CC3)cc12` (single isomer, unassigned) [Example 178, 1-(2-(4-(2-(3,4-dimethoxyphenyl)-3-ethyl-1H-indol-5-yl)piperidin-1-yl)-2-oxoethyl)-N,N-diethylpiperidine-3-carboxamide], for which the IC50 in assay [1] was found to be 480 nM; in assay [2], 131 nM.

Turning to `COc1ccc(-c2[nH]c3ccc(C4CCN(C5CCN(C)CC5)CC4)cc3c2C(C)C)cc1OC` [Example 200, 2-(3,4-dimethoxyphenyl)-3-isopropyl-5-(1′-methyl-[1,4′-bipiperidin]-4-yl)-1H-indole], the IC50 in assay [1] came to 101 nM; in assay [2], 27 nM.

In the case of `CCc1c(-c2ccc(OC)c(OC)c2)[nH]c2ccc(C3CCN(C(C)=O)CC3)cc12` [Example 185, 1-(4-(2-(3,4-dimethoxyphenyl)-3-ethyl-1H-indol-5-yl)piperidin-1-yl)ethan-1-one], the values for the IC50 in assay [1] and in assay [2] were 273 nM and 837 nM, respectively.
